Data on four compounds can be found in PubChem BioAssay AID1259407 (Chemical Carcinogenesis Research Information System (CCRIS), 2018).

Active and inactive are the calls of the source. No rule for the calls is given here.

This series concerns CCRIS mutagenicity, Ames/micronucleus/aberration tests. Put plainly: CCRIS mutagenicity studies.
[1] abbreviates: Test System: AMES SALMONELLA TYPHIMURIUM, Strain/Indicator: TA97, Metabolic Activation: NONE, Method: PREINCUBATION
The mark [2] stands for this setting: Test System: AMES SALMONELLA TYPHIMURIUM, Strain/Indicator: TA98, Metabolic Activation: NONE, Method: PREINCUBATION
Where [3] appears, read: Test System: AMES SALMONELLA TYPHIMURIUM, Strain/Indicator: TA98, Metabolic Activation: NONE, Method: STANDARD PLATE.
The mark [4] stands for this setting: Test System: AMES SALMONELLA TYPHIMURIUM, Strain/Indicator: TA100, Metabolic Activation: NONE, Method: PREINCUBATION
[5] abbreviates: Test System: AMES SALMONELLA TYPHIMURIUM, Strain/Indicator: TA1535, Metabolic Activation: NONE, Method: PREINCUBATION

As to `Nc1ccc(N)c2c1C(=O)c1c(N)ccc(N)c1C2=O`, the mutagenic call runs as follows: (End Point: IN VITRO CHROMOSOMAL ABERRATIONS, Test System: CHO CELLS, Metabolic Activation: NONE) “active; positive”; (End Point: IN VITRO CHROMOSOMAL ABERRATIONS, Test System: CHO CELLS, Metabolic Activation: RAT, LIVER, S-9, AROCLOR 1254) “active; positive”; (Test System: AMES SALMONELLA TYPHIMURIUM, Strain/Indicator: TA97, Metabolic Activation: HAMSTER, LIVER, S-9, AROCLOR 1254 (10%), Method: PREINCUBATION) “inactive; negative”; (Test System: AMES SALMONELLA TYPHIMURIUM, Strain/Indicator: TA97, Metabolic Activation: HAMSTER, LIVER, S-9, AROCLOR 1254, Method: PREINCUBATION) “active; positive”; under setting [1], “active; positive”; (Test System: AMES SALMONELLA TYPHIMURIUM, Strain/Indicator: TA97, Metabolic Activation: RAT, LIVER, S-9, AROCLOR 1254 (10%), Method: PREINCUBATION) “inactive; negative”. In addition, the mutagenic call is “active; positive” (Test System: AMES SALMONELLA TYPHIMURIUM, Strain/Indicator: TA97, Metabolic Activation: RAT, LIVER, S-9, AROCLOR 1254, Method: PREINCUBATION); “active; positive” (Test System: AMES SALMONELLA TYPHIMURIUM, Strain/Indicator: TA98, Metabolic Activation: HAMSTER, LIVER, S-9, AROCLOR 1254 (10%), Method: PREINCUBATION); “active; positive” (Test System: AMES SALMONELLA TYPHIMURIUM, Strain/Indicator: TA98, Metabolic Activation: HAMSTER, LIVER, S-9, AROCLOR 1254, Method: PREINCUBATION); “active; positive” under setting [2]; “inactive; negative” under setting [3]; “active; positive” (Test System: AMES SALMONELLA TYPHIMURIUM, Strain/Indicator: TA98, Metabolic Activation: RAT, LIVER, S-9, AROCLOR 1254 (10%), Method: PREINCUBATION). The mutagenic call is “active; positive” (Test System: AMES SALMONELLA TYPHIMURIUM, Strain/Indicator: TA98, Metabolic Activation: RAT, LIVER, S-9, AROCLOR 1254, Method: PREINCUBATION); “inactive; negative” (Test System: AMES SALMONELLA TYPHIMURIUM, Strain/Indicator: TA98, Metabolic Activation: RAT, LIVER, S-9, AROCLOR 1254, Method: STANDARD PLATE); “inactive; negative” (Test System: AMES SALMONELLA TYPHIMURIUM, Strain/Indicator: TA100, Metabolic Activation: HAMSTER, LIVER, S-9, AROCLOR 1254 (10%), Method: PREINCUBATION); “inactive; negative” (Test System: AMES SALMONELLA TYPHIMURIUM, Strain/Indicator: TA100, Metabolic Activation: HAMSTER, LIVER, S-9, AROCLOR 1254, Method: PREINCUBATION); “inactive; negative” under setting [4]; “inactive; negative” (Test System: AMES SALMONELLA TYPHIMURIUM, Strain/Indicator: TA100, Metabolic Activation: NONE, Method: STANDARD PLATE). The mutagenic call was “inactive; negative” (Test System: AMES SALMONELLA TYPHIMURIUM, Strain/Indicator: TA100, Metabolic Activation: RAT, LIVER, S-9, AROCLOR 1254 (10%), Method: PREINCUBATION); “inactive; negative” (Test System: AMES SALMONELLA TYPHIMURIUM, Strain/Indicator: TA100, Metabolic Activation: RAT, LIVER, S-9, AROCLOR 1254, Method: PREINCUBATION); “inactive; negative” (Test System: AMES SALMONELLA TYPHIMURIUM, Strain/Indicator: TA100, Metabolic Activation: RAT, LIVER, S-9, AROCLOR 1254, Method: STANDARD PLATE); “active; positive” (Test System: AMES SALMONELLA TYPHIMURIUM, Strain/Indicator: TA1535, Metabolic Activation: HAMSTER, LIVER, S-9, AROCLOR 1254 (10%), Method: PREINCUBATION); “active; positive” (Test System: AMES SALMONELLA TYPHIMURIUM, Strain/Indicator: TA1535, Metabolic Activation: HAMSTER, LIVER, S-9, AROCLOR 1254, Method: PREINCUBATION); “inactive; negative” under setting [5]. The mutagenic call (Test System: AMES SALMONELLA TYPHIMURIUM, Strain/Indicator: TA1535, Metabolic Activation: NONE, Method: STANDARD PLATE) was “inactive; negative”; the mutagenic call (Test System: AMES SALMONELLA TYPHIMURIUM, Strain/Indicator: TA1535, Metabolic Activation: RAT, LIVER, S-9, AROCLOR 1254 (10%), Method: PREINCUBATION) was “active; positive”; the mutagenic call (Test System: AMES SALMONELLA TYPHIMURIUM, Strain/Indicator: TA1535, Metabolic Activation: RAT, LIVER, S-9, AROCLOR 1254, Method: PREINCUBATION) was “active; positive”; the mutagenic call (Test System: AMES SALMONELLA TYPHIMURIUM, Strain/Indicator: TA1535, Metabolic Activation: RAT, LIVER, S-9, AROCLOR 1254, Method: STANDARD PLATE) is “inactive; negative”; the mutagenic call (Test System: AMES SALMONELLA TYPHIMURIUM, Strain/Indicator: TA1537, Metabolic Activation: NONE, Method: STANDARD PLATE) is “active; positive”; the mutagenic call (Test System: AMES SALMONELLA TYPHIMURIUM, Strain/Indicator: TA1538, Metabolic Activation: RAT, LIVER, S-9, AROCLOR 1254, Method: STANDARD PLATE) was “inactive; negative”. For the same compound, the mutagenic call (Test System: MOUSE LYMPHOMA, Strain/Indicator: L5178Y (TK+/TK-), Metabolic Activation: NONE, Method: SUSPENSION/PLATE) is “active; positive”.

With `[N-]=[N+]=Nc1nc2ccccc2[nH]1`, under setting [3], the mutagenic call was “active; positive”.

In the case of `CN1CCOCC1`, the mutagenic call is “inactive; negative” under setting [2]; “inactive; negative” (Test System: AMES SALMONELLA TYPHIMURIUM, Strain/Indicator: TA98, Metabolic Activation: RAT, LIVER, S-9, PCB, Method: PREINCUBATION); “inactive; negative” under setting [4]; “inactive; negative” (Test System: AMES SALMONELLA TYPHIMURIUM, Strain/Indicator: TA100, Metabolic Activation: RAT, LIVER, S-9, PCB, Method: PREINCUBATION).

For the compound `Clc1c(Cl)c(Cl)c2c(c1Cl)Oc1c(Cl)c(Cl)c(Cl)c(Cl)c1O2`, the mutagenic call reads like this: (Test System: AMES SALMONELLA TYPHIMURIUM, Strain/Indicator: TA97, Metabolic Activation: HAMSTER, LIVER, S-9, AROCLOR 1254 (10 OR 30%), Method: PREINCUBATION) “inactive; negative”; under setting [1], “inactive; negative”; (Test System: AMES SALMONELLA TYPHIMURIUM, Strain/Indicator: TA97, Metabolic Activation: RAT, LIVER, S-9, AROCLOR 1254 (10 OR 30%), Method: PREINCUBATION) “inactive; negative”; (Test System: AMES SALMONELLA TYPHIMURIUM, Strain/Indicator: TA98, Metabolic Activation: HAMSTER, LIVER, S-9, AROCLOR 1254 (10 OR 30%), Method: PREINCUBATION) “inactive; negative”; under setting [2], “inactive; negative”; (Test System: AMES SALMONELLA TYPHIMURIUM, Strain/Indicator: TA98, Metabolic Activation: RAT, LIVER, S-9, AROCLOR 1254 (10 OR 30%), Method: PREINCUBATION) “inactive; negative”. Moreover, the mutagenic call runs as follows: (Test System: AMES SALMONELLA TYPHIMURIUM, Strain/Indicator: TA100, Metabolic Activation: HAMSTER, LIVER, S-9, AROCLOR 1254 (10 OR 30%), Method: PREINCUBATION) “inactive; negative”; under setting [4], “inactive; negative”; (Test System: AMES SALMONELLA TYPHIMURIUM, Strain/Indicator: TA100, Metabolic Activation: RAT, LIVER, S-9, AROCLOR 1254 (10 OR 30%), Method: PREINCUBATION) “inactive; negative”; (Test System: AMES SALMONELLA TYPHIMURIUM, Strain/Indicator: TA1535, Metabolic Activation: HAMSTER, LIVER, S-9, AROCLOR 1254 (10 OR 30%), Method: PREINCUBATION) “inactive; negative”; under setting [5], “inactive; negative”; (Test System: AMES SALMONELLA TYPHIMURIUM, Strain/Indicator: TA1535, Metabolic Activation: RAT, LIVER, S-9, AROCLOR 1254 (10 OR 30%), Method: PREINCUBATION) “inactive; negative”.
